A word on the AC50: it is the concentration giving half of the maximal activity seen.

This test addresses T1, human PAH with the R408W mutation (A375 R408W cells) (Homo sapiens, UniProt P00439, R408W).
T1 construct: expressed in transfected cells
T1 sequence (P00439 1-452 R408W): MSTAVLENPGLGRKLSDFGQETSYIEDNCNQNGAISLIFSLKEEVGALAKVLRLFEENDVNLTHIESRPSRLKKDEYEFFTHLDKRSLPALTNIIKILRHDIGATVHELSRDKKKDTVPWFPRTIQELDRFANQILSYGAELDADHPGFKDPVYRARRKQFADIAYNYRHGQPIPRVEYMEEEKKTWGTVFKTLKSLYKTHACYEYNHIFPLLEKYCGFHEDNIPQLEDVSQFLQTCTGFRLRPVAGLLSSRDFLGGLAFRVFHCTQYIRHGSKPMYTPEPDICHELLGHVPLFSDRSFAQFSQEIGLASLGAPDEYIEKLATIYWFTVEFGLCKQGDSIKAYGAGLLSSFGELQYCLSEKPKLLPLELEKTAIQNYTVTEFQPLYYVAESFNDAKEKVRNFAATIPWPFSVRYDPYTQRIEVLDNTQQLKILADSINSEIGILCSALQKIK
The experiment in a line: Cell Based Phenylalanine Flux Assay. The note with it: A375 R408W cells; 24 hrs with compound, then 20 μM sepiapterin and 800 μM 13C9,15N-Phenylalanine for 4 hours; 13C-Tyrosine by LC-MS; average where tested multiple times. In short, it runs like this:
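AC50 is derived from LC-MS of 13C-tyrosine in the media after a 4 h pulse of 800 μM 13C9,15N-phenylalanine plus 20 μM sepiapterin. The A375 R408W PAH cells had received duplicate 10-point, 2-fold compound dilutions (0.5% DMSO) for 24 h beforehand.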
Regarding `Cc1ccc2nc([C@H]3c4nc[nH]c4CCN3C(=O)c3ocnc3C(F)(F)F)oc2c1` [Example 58, (R)-(4-(6-methylbenzo[d]oxazol-2-yl)-6,7-dihydro-1H-imidazo[4,5-c]pyridin-5(4H)-yl)(4-(trifluoromethyl)oxazol-5-yl)methanone], the AC50 was at most 500 nM.

As for `O=C(CC1CC(F)C1)N1CCc2[nH]cnc2[C@H]1c1nc2cc(F)ccc2o1` (stereo partly drawn) [Example 59, (S)-1-(4-(5-fluorobenzo[d]oxazol-2-yl)-6,7-dihydro-1H-imidazo[4,5-c]pyridin-5(4H)-yl)-2-(3-fluorocyclobutyl)ethanone], the AC50 was 500 to 1000 nM.

Take `O=C(CC1CC(F)C1)N1CCc2[nH]cnc2[C@@H]1c1nc2cc(F)ccc2o1` (stereo partly drawn) [Example 60, (R)-1-(4-(5-fluorobenzo[d]oxazol-2-yl)-6,7-dihydro-1H-imidazo[4,5-c]pyridin-5(4H)-yl)-2-(3-fluorocyclobutyl)ethanone]: the AC50 fell in the range of 1000 to 5000 nM.

On to `O=C([C@@H]1CC1(F)F)N1CCc2[nH]cnc2[C@H]1c1nc2cc(F)ccc2o1` [Example 61, ((S)-2,2-difluorocyclopropyl)((S)-4-(5-fluorobenzo[d]oxazol-2-yl)-6,7-dihydro-1H-imidazo[4,5-c]pyridin-5(4H)-yl)methanone], for which the AC50 is 500 to 1000 nM.

In the case of `O=C([C@@H]1CC1(F)F)N1CCc2[nH]cnc2[C@@H]1c1nc2cc(F)ccc2o1` [Example 62, ((S)-2,2-difluorocyclopropyl)((R)-4-(5-fluorobenzo[d]oxazol-2-yl)-6,7-dihydro-1H-imidazo[4,5-c]pyridin-5(4H)-yl)methanone], the AC50 was in the range of 1000 to 5000 nM.

As for `Cc1ccc2oc([C@@H]3c4nc[nH]c4CCN3C(=O)c3ocnc3C(F)(F)F)nc2c1` [Example 63, (S)-(4-(5-methylbenzo[d]oxazol-2-yl)-6,7-dihydro-1H-imidazo[4,5-c]pyridin-5(4H)-yl)(4-(trifluoromethyl)oxazol-5-yl)methanone], the AC50 was at most 500 nM.

Take `Cc1ccc2oc([C@H]3c4nc[nH]c4CCN3C(=O)c3ocnc3C(F)(F)F)nc2c1` [Example 64, (R)-(4-(5-methylbenzo[d]oxazol-2-yl)-6,7-dihydro-1H-imidazo[4,5-c]pyridin-5(4H)-yl)(4-(trifluoromethyl)oxazol-5-yl)methanone]: the AC50 was at most 500 nM.

As to `CN1CCN(c2ccc3c(C(=O)N4CCc5[nH]cnc5[C@H]4c4nc5cc(F)ccc5o4)cnn3c2)CC1` [Example 65, (S)-(4-(5-fluorobenzo[d]oxazol-2-yl)-6,7-dihydro-1H-imidazo[4,5-c]pyridin-5(4H)-yl)(6-(4-methylpiperazin-1-yl)pyrazolo[1,5-a]pyridin-3-yl)methanone], the AC50 was 1000 to 5000 nM.

With `CN1CCN(c2ccc3c(C(=O)N4CCc5[nH]cnc5[C@@H]4c4nc5cc(F)ccc5o4)cnn3c2)CC1` [Example 66, (R)-(4-(5-fluorobenzo[d]oxazol-2-yl)-6,7-dihydro-1H-imidazo[4,5-c]pyridin-5(4H)-yl)(6-(4-methylpiperazin-1-yl)pyrazolo[1,5-a]pyridin-3-yl)methanone], the AC50 was at least 5000 nM.

For `Cn1cc(-c2nnc(C(=O)N3CCc4[nH]cnc4[C@H]3c3nc4cc(F)ccc4o3)o2)cn1` [Example 67, (S)-(4-(5-fluorobenzo[d]oxazol-2-yl)-6,7-dihydro-1H-imidazo[4,5-c]pyridin-5(4H)-yl)(5-(1-methyl-1H-pyrazol-4-yl)-1,3,4-oxadiazol-2-yl)methanone], the AC50 was 1000 to 5000 nM.

Turning to `Cn1cc(-c2nnc(C(=O)N3CCc4[nH]cnc4[C@@H]3c3nc4cc(F)ccc4o3)o2)cn1` [Example 68, (R)-(4-(5-fluorobenzo[d]oxazol-2-yl)-6,7-dihydro-1H-imidazo[4,5-c]pyridin-5(4H)-yl)(5-(1-methyl-1H-pyrazol-4-yl)-1,3,4-oxadiazol-2-yl)methanone], the AC50 was 1000 to 5000 nM.

As for `O=C(c1cnn2cc(Br)ccc12)N1CCc2[nH]cnc2[C@H]1c1nc2cc(F)ccc2o1` [Example 69, (S)-(6-bromopyrazolo[1,5-a]pyridin-3-yl)(4-(5-fluorobenzo[d]oxazol-2-yl)-6,7-dihydro-1H-imidazo[4,5-c]pyridin-5(4H)-yl)methanone], the AC50 lay in the range of 500 to 1000 nM.

As for `O=C(c1cnn2cc(Br)ccc12)N1CCc2[nH]cnc2[C@@H]1c1nc2cc(F)ccc2o1` [Example 70, (R)-(6-bromopyrazolo[1,5-a]pyridin-3-yl)(4-(5-fluorobenzo[d]oxazol-2-yl)-6,7-dihydro-1H-imidazo[4,5-c]pyridin-5(4H)-yl)methanone], the AC50 lay within 1000 to 5000 nM.

In the case of `Cn1cc(-c2ccc3c(C(=O)N4CCc5[nH]cnc5[C@H]4c4nc5cc(F)ccc5o4)cnn3c2)cn1` [Example 71, (S)-(4-(5-fluorobenzo[d]oxazol-2-yl)-6,7-dihydro-1H-imidazo[4,5-c]pyridin-5(4H)-yl)(6-(1-methyl-1H-pyrazol-4-yl)pyrazolo[1,5-a]pyridin-3-yl)methanone], the AC50 is 500 to 1000 nM.

Regarding `Cn1cc(-c2ccc3c(C(=O)N4CCc5[nH]cnc5[C@@H]4c4nc5cc(F)ccc5o4)cnn3c2)cn1` [Example 72, (R)-(4-(5-fluorobenzo[d]oxazol-2-yl)-6,7-dihydro-1H-imidazo[4,5-c]pyridin-5(4H)-yl)(6-(1-methyl-1H-pyrazol-4-yl)pyrazolo[1,5-a]pyridin-3-yl)methanone], the AC50 is at least 5000 nM.

`COc1ccc2c(C(=O)N3CCc4[nH]cnc4[C@H]3c3nc4cc(F)ccc4o3)cnn2c1` [Example 73, (S)-(4-(5-fluorobenzo[d]oxazol-2-yl)-6,7-dihydro-1H-imidazo[4,5-c]pyridin-5(4H)-yl)(6-methoxypyrazolo[1,5-a]pyridin-3-yl)methanone]: the AC50 was in the range of 500 to 1000 nM.

For the compound `COc1ccc2c(C(=O)N3CCc4[nH]cnc4[C@@H]3c3nc4cc(F)ccc4o3)cnn2c1` [Example 74, (R)-(4-(5-fluorobenzo[d]oxazol-2-yl)-6,7-dihydro-1H-imidazo[4,5-c]pyridin-5(4H)-yl)(6-methoxypyrazolo[1,5-a]pyridin-3-yl)methanone], the AC50 is at least 5000 nM.

For `O=C(c1nnc(-c2ccc(F)c(F)c2)o1)N1CCc2[nH]cnc2[C@H]1c1nc2cc(F)ccc2o1` [Example 75, (S)-(5-(3,4-difluorophenyl)-1,3,4-oxadiazol-2-yl)(4-(5-fluorobenzo[d]oxazol-2-yl)-6,7-dihydro-1H-imidazo[4,5-c]pyridin-5(4H)-yl)methanone], the AC50 was in the range of 500 to 1000 nM.

Consider `O=C(c1nnc(-c2ccc(F)c(F)c2)o1)N1CCc2[nH]cnc2[C@@H]1c1nc2cc(F)ccc2o1` [Example 76, (R)-(5-(3,4-difluorophenyl)-1,3,4-oxadiazol-2-yl)(4-(5-fluorobenzo[d]oxazol-2-yl)-6,7-dihydro-1H-imidazo[4,5-c]pyridin-5(4H)-yl)methanone], for which the AC50 lay within 1000 to 5000 nM.

For `Cc1cc(F)ccc1-c1nnc(C(=O)N2CCc3[nH]cnc3[C@H]2c2nc3cc(F)ccc3o2)o1` [Example 77, (S)-(5-(4-fluoro-2-methylphenyl)-1,3,4-oxadiazol-2-yl)(4-(5-fluorobenzo[d]oxazol-2-yl)-6,7-dihydro-1H-imidazo[4,5-c]pyridin-5(4H)-yl)methanone], the AC50 was in the range of 500 to 1000 nM.

Consider `Cc1cc(F)ccc1-c1nnc(C(=O)N2CCc3[nH]cnc3[C@@H]2c2nc3cc(F)ccc3o2)o1` [Example 78, (R)-(5-(4-fluoro-2-methylphenyl)-1,3,4-oxadiazol-2-yl)(4-(5-fluorobenzo[d]oxazol-2-yl)-6,7-dihydro-1H-imidazo[4,5-c]pyridin-5(4H)-yl)methanone], for which the AC50 lay in the range of 1000 to 5000 nM.

On to `CN(C)CCc1cn2ncc(C(=O)N3CCc4[nH]cnc4[C@H]3c3nc4cc(F)ccc4o3)c2cc1Cl` [Example 79, (S)-(5-chloro-6-(2-(dimethylamino)ethyl)pyrazolo[1,5-a]pyridin-3-yl)(4-(5-fluorobenzo[d]oxazol-2-yl)-6,7-dihydro-1H-imidazo[4,5-c]pyridin-5(4H)-yl)methanone], for which the AC50 lay in the range of 500 to 1000 nM.

`CN(C)CCc1cn2ncc(C(=O)N3CCc4[nH]cnc4[C@@H]3c3nc4cc(F)ccc4o3)c2cc1Cl` [Example 80, (R)-(5-chloro-6-(2-(dimethylamino)ethyl)pyrazolo[1,5-a]pyridin-3-yl)(4-(5-fluorobenzo[d]oxazol-2-yl)-6,7-dihydro-1H-imidazo[4,5-c]pyridin-5(4H)-yl)methanone]: the AC50 is 1000 to 5000 nM.

Regarding `O=C(c1cnn2cc(-c3ccccn3)ccc12)N1CCc2[nH]cnc2[C@H]1c1nc2cc(F)ccc2o1` [Example 81, (S)-(4-(5-fluorobenzo[d]oxazol-2-yl)-6,7-dihydro-1H-imidazo[4,5-c]pyridin-5(4H)-yl)(6-(pyridin-2-yl)pyrazolo[1,5-a]pyridin-3-yl)methanone], the AC50 was in the range of 500 to 1000 nM.

In the case of `O=C(c1cnn2cc(-c3ccccn3)ccc12)N1CCc2[nH]cnc2[C@@H]1c1nc2cc(F)ccc2o1` [Example 82, (R)-(4-(5-fluorobenzo[d]oxazol-2-yl)-6,7-dihydro-1H-imidazo[4,5-c]pyridin-5(4H)-yl)(6-(pyridin-2-yl)pyrazolo[1,5-a]pyridin-3-yl)methanone], the AC50 was at least 5000 nM.

The values above are taken from patent publication US20250171437A1 (Agios Pharmaceuticals,Inc., priority 2022, published 2025).
